Source: patent US7611848B2, “Method for selecting allosteric regulators of class III G protein-coupled receptors” (Centre National de la Recherche Scientifique (CNRS), priority 2003, dated 2009)

How the values were obtained:
[1] = molecular target: heterodimeric receptor GABAB (GB1 and GB2 subunits) (Homo sapiens, UniProt O75899); settings: literature (Urwyler et al., 2001); cited from earlier work
[2] = system: deltaGB2s (truncated GABAB2 (GB2) subunit); assay: IP production in HEK293 cells transiently expressing deltaGB2s receptor and chimeric G protein Gqi9; type: cell-based; settings: deltaGB2s with Gqi9, FIG. 9
Excerpt: FIG. 9: Graph representing the dose-effect of CGP7930 on the deltaGB2s receptor, in HEK293 cells transiently expressing this receptor, and also the chimeric G protein Gqi9 that allows coupling of this receptor to the phospholipase C activation pathway. The results correspond to the ratio of the production of IP to the radioactivity remaining in the membranes.
The protocol described in section A.I. above, concerning the mGlu5 receptor, was applied mutatis mutandis to the mGlu1 and mGlu2 receptors and to the GB2 subunit.
For this, GPCRs-III for which positive allosteric modulators have been described were chosen: the mGlu1 receptor (Ro01-6128) (Knoflach et al., 2001), the mGlu2 receptor (LY487379) (Schaffhauser et al., 2003), and the GABAB2 (GB2) subunit of the GABAB receptor (CGP7930) (Urwyler et al., 2001). The receptors truncated with respect to their extracellular and intracellular portions are named, respectively, delta1s, delta2s and deltaGB2s and were expressed transiently in HEK293 cells.
In order to allow the delta2s and deltaGB2s receptors to activate the phospholipase C, and therefore to increase the production of inositol phosphates, these two receptors were coexpressed with the chimeric G protein Gqi9 as described above (Gomeza et al., 1996; Franek et al., 1999).

[3] = molecular target: T1, mGlu5ΔS protein (heptahelical domain of the mGlu5 receptor) (Rattus norvegicus, UniProt P31424); assay: IP production in HEK293 cells transiently expressing truncated mGlu5ΔS protein; type: cell-based
T1 construct: between residue P568, located 11 residues before the first transmembrane domain, and residue L864; signal peptide of the mGlu5 receptor (N); expressed in transfected cells; host or cells: HEK293
T1 sequence (P31424 568-864, stated change not applied): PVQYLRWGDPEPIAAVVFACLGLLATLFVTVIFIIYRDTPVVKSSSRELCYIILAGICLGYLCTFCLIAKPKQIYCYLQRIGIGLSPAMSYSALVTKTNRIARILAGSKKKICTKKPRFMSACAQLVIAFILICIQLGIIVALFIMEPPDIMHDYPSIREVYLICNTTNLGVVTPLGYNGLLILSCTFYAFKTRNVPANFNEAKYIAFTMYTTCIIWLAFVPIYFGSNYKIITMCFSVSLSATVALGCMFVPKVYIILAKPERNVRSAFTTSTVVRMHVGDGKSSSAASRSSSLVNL
Excerpt: (§1) The results correspond to the ratio of the production of IP to the radioactivity remaining in the membranes, and are expressed as percentage baseline production of IP.
(§2) The results correspond to the ratio of the production of IP to the radioactivity remaining in the membranes.
(§3) In the context of the invention, the measurement of the level of activity of the GPCR-III-A can be carried out by any conventional method known to those skilled in the art that is suitable for measuring the activity of a GPCR-III. Among these methods, mention may be made, by way of example, of measurement of the level of production of inositol phosphates (IPs; see Experimental Section, below; Berridge, 1983; Brandish et al., 2003), measurement of […] (Milligan, 2003), measurement of intracellular calcium signals using fluorescent markers such as Fluo3 or Fluo4, and measurement of cAMP production, the latter two methods being conventional and well known to those skilled in the art.
The portion of the cDNA of the mGlu5 receptor encoding its heptahelical domain between residue P568, located 11 residues before the first transmembrane domain, and residue L864, located 37 residues after the 7th transmembrane domain, was amplified by PCR (primers SEQ ID No.1 and SEQ ID No.2), including, respectively, the restriction sites of the Mlu-I and Xba-I enzymes at the 5′ and 3′ ends (FIG. 2). The PCR product thus obtained was digested with the Mlu-I and Xba-I enzymes, subcloned into the vector pRK5-NHA (FIG. 2), and digested with the same enzymes. The plasmid pRK5-NHA was obtained from the plasmid pRKG5a-NHA (Ango et al., 1999), by replacing the sequence encoding the mGlu5 receptor, from the end of the HA tag to the XbaI restriction site, with an MluI restriction site.

wild-type mGlu5 receptor = molecular target: T2, wild-type mGlu5 receptor (Rattus norvegicus, UniProt P31424); assay: IP production in HEK293 cells transiently expressing wild-type mGlu5 receptor; type: cell-based
T2 construct: expressed in transfected cells; host or cells: HEK293
T2 sequence (P31424 21-1171 isoform P31424-2 limits assumed): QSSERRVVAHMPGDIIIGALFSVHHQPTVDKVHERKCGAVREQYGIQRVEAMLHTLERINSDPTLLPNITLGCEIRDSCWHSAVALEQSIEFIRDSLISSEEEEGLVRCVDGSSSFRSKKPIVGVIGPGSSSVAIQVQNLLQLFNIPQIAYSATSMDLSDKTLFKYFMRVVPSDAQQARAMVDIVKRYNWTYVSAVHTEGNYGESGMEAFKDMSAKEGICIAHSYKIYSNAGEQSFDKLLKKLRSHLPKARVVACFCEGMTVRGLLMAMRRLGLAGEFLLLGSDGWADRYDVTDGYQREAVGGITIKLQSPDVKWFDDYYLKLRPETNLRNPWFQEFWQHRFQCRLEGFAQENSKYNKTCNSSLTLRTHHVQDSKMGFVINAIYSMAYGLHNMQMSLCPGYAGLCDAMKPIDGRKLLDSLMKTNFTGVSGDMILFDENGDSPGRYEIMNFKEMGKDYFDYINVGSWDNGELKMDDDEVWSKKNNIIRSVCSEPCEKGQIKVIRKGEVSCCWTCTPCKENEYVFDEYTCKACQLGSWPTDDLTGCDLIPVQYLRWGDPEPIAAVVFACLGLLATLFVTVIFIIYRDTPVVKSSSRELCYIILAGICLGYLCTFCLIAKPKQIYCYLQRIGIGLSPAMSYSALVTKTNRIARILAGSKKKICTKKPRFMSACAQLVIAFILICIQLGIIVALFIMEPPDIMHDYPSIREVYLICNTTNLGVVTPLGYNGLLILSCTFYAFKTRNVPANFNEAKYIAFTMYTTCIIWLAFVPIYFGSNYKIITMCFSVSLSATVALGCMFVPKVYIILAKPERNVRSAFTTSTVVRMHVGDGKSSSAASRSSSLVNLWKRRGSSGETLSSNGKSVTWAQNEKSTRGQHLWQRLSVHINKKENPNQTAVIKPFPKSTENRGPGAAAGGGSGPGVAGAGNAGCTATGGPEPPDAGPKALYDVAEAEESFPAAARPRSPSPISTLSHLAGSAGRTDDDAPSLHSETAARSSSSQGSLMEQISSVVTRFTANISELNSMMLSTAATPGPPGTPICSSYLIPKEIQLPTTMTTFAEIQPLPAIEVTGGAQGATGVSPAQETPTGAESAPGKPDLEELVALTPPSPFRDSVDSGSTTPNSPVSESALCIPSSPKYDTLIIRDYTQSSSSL
Excerpt: as §2, §1, §3
DFB has recently been described as a positive allosteric regulator of the mGlu5 receptor (Williams et al., 2002). In order to test its effect on the mGlu5ΔS protein, DFB was synthesized by F. Acher (UMR University R. Descartes, rue des Saints Peres, Paris 5).
The data correspond to the mean±standard deviation of the mean of (n) experiments.

mGlu2 receptor = mGlu2 receptor (Homo sapiens, UniProt Q14416); settings: literature; cited from earlier work
Chain of mGlu2 receptor (Q14416 19-872): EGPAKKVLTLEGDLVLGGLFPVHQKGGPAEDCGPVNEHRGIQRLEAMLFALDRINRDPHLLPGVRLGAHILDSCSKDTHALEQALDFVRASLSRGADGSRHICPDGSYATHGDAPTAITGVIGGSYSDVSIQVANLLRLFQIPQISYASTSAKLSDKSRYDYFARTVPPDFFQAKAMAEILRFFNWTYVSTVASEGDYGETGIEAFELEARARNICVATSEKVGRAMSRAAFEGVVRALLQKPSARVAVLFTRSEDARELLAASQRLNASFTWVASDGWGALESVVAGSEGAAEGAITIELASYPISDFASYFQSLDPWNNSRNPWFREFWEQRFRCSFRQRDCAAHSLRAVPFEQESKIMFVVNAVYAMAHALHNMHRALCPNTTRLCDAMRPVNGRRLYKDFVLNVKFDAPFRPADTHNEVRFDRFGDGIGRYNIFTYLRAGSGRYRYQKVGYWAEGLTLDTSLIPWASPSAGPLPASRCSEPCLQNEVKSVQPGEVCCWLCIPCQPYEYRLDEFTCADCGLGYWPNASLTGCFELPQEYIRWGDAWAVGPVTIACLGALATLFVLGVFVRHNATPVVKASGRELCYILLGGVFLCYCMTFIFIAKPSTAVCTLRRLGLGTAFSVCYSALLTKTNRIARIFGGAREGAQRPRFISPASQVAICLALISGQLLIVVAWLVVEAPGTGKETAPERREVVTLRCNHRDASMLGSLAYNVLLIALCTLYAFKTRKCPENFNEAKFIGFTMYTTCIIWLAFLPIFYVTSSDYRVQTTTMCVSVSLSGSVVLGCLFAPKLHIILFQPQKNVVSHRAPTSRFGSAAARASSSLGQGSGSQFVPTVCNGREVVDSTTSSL

mGlu1 receptor = mGlu1 receptor (Rattus norvegicus, UniProt P23385); settings: literature; cited from earlier work
Chain of mGlu1 receptor (P23385 19-1199): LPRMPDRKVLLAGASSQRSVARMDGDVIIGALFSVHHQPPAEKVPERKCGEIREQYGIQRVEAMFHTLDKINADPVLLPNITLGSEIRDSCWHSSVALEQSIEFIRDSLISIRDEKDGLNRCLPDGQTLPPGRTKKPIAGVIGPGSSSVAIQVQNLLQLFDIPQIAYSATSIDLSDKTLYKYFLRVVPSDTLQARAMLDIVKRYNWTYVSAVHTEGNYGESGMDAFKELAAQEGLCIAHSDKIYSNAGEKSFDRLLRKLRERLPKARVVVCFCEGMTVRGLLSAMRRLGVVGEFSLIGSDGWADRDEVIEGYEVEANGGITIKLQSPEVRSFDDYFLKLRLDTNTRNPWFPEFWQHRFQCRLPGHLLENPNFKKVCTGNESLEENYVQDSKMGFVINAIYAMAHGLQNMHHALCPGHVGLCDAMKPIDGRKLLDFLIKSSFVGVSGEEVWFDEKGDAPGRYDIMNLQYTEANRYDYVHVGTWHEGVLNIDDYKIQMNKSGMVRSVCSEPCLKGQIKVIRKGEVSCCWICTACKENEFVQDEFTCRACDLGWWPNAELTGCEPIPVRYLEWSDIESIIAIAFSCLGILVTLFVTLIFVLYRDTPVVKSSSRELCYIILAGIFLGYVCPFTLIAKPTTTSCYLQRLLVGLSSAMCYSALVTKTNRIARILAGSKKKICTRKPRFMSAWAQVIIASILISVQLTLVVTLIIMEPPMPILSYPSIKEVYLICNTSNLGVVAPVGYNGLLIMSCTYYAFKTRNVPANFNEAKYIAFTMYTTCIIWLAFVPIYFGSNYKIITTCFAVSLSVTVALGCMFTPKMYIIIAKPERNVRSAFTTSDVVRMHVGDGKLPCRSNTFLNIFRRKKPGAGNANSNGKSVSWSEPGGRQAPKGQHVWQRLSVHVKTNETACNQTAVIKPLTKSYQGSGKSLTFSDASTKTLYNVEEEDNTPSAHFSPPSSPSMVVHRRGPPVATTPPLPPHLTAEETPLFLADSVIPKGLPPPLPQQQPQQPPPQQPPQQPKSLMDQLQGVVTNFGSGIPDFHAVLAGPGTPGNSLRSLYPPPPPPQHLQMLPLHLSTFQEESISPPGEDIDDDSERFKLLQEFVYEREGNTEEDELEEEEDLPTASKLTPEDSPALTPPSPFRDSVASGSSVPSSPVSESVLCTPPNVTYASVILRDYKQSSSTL

CC(C)(CO)Cc1cc(C(C)(C)C)c(O)c(C(C)(C)C)c1 [CGP7930, 2,6-Di-tert.-butyl-4-4-(3-hydroxy-2,2-dimethyl-propyl)-phenol]
agonist activity on heterodimeric GABAB receptor [1]: weak agonist activity | stimulation of truncated construct (IP production) [2]: strongly stimulates

Fc1cccc(/C=N/N=C/c2cccc(F)c2)c1 [DFB]
effect on IP production of compound alone (agonist behaviour) ([3]; cells expressing mGlu5ΔS): stimulated IP production | EC50 ([3]; compound alone on mGlu5ΔS, n=3, read-out: EC50 for stimulation of IP production): 8 ± 3 µM | activation of the wild-type mGlu5 receptor by compound alone (wild-type mGlu5 receptor; glutamate kept as low as possible by coexpression of EAAC1 and addition of GPT with pyruvate (2 mM)): did not significantly activate | EC50 (wild-type mGlu5 receptor; in the presence of a low concentration of agonist, read-out: EC50 for dose-dependent increase of IP production): 1.81 ± 1.04 µM

COc1ccccc1Oc1ccc(N(Cc2cccnc2)S(=O)(=O)CC(F)(F)F)cc1 [LY487379]
agonist effect when applied alone (mGlu2 receptor): no agonist effect | potentiation of the effect of agonists (mGlu2 receptor): potentiate the effect of agonists

Cc1cccc(C#Cc2ccccc2)n1 [MPEP, 2-Methyl-6-(phenylethynyl)pyridine]
inhibition of the effect of DFB ([3]; mGlu5ΔS cells treated with 300 μM of DFB (FIG. 6B)): inhibited | inhibition of the effect of DFB (wild-type mGlu5 receptor; wild-type receptor, data not shown): inhibited

CCOC(=O)NC(=O)C(c1ccccc1)c1ccccc1 [Ro01-6128]
agonist effect when applied alone (mGlu1 receptor): no agonist effect | potentiation of the effect of agonists (mGlu1 receptor): potentiate the effect of agonists

glutamate
effect of glutamate on IP production (wild-type mGlu5 receptor; 100 μM glutamate (FIG. 3), wild-type mGlu5): stimulated IP production
